Test results as given in paper PMC8424217 (The Journal of Biological Chemistry, 2021).
Peptide text beside a SMILES is read from it. * marks the point of attachment. Palmitoyl = CCCCCCCCCCCCCCCC(=O)*

Columns and labels:
[1] = molecular target: T1, hUT (Homo sapiens, UniProt Q9UKP6); experiment: EGFR transactivation (EGFR-GFP internalization, confocal microscopy), HEK 293-hUT cells; assay type: cell-based; parameters: expressed in transfected cells; conditions: 30 min; for EGFR internalization: 10^−6 M; for EGFR transactivation after YM254890 (Gq inhibitor): YM254890 100 nM 1 h pretreatment, peptide 10^−6 M
T1 sequence (Q9UKP6 1-389): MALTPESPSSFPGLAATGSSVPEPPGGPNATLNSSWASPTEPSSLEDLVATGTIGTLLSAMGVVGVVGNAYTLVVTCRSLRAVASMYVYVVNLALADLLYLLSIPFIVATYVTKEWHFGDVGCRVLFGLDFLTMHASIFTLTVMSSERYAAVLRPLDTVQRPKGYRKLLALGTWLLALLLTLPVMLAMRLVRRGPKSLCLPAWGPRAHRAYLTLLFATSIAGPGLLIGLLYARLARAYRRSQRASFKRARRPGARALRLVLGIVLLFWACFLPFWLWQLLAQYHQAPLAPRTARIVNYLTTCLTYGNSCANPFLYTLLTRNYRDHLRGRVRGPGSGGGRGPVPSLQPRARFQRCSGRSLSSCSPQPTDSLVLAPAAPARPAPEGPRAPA
Experimental: EGFR internalization, following hUT stimulation with various ligands for 30 min, was visualized using confocal microscopy. The images shown are from representative experiments repeated at least three times.
HEK 293 and HEK 293-hUT cells, transiently transfected with cDNA encoding fluorescently labeled EGFR (EGFR-GFP) (2 μg), were plated onto 35-mm glass-bottomed culture dishes (MatTek Corp). Following stimulation, cells were washed once with PBS and fixed in 4% paraformaldehyde for 15 min. To study the involvement of Gq in EGFR internalization, cells were treated with YM254890 (100 nM) for 1h prior peptide treatments. […] EGFR-GFP internalization was visualized using a combination of excitation (488 nm) and emission filters (499 and 520 nm).

[2] = test system: HEK 293 cells
Experimental: Pepducins are composed of a synthetic peptide, mimicking an intracellular GPCR loop, to which a hydrophobic moiety, most commonly the fully saturated C16 fatty acid palmitate, is conjugated at their N-termini ([39]). […] The second pepducin ([Trp^1, Leu^2]hUT-Pep3) comprises the hUT ICL3 sequence; however, the first two N-terminal amino acids were replaced by the corresponding residues from rat UT ICL3 (-Arg-Arg-in hUT and -Trp-Leu- in rUT).
Toxicity of hUT-derived pepducins was evaluated using (A) MTT or (B) LDH assays in HEK 293-hUT cells.
HEK 293 cells were seeded at a density of 2 × 10^4 cells/well in 96 well-plates and cultured at 37 °C for 24 h. Cells were then incubated in serum-free media with hUT-derived pepducins at various concentrations (10^−8 M–10^−4 M). Viability was assessed with an MTS kit (CellTiter 96 AQueous, Promega) and a microplate reader (MTX^TC Revelation, Dynex Tech) in order to determine the optical density related to the conversion of MTS into purple-colored water-soluble formazan. Positive control (cells treated with 10% DMSO) and negative control (nontreated cells) were included in each experiment. Results were expressed as the percentage of control (nontreated cells). The presence of lactate dehydrogenase (LDH), released in the culture medium from dead cells, was also determined using a commercial LDH kit (BioVision). Positive control (cells treated with lysis buffer) and negative control (nontreated cells) were included in each experiment. Results were expressed as the percentage of the maximum LDH release following cell lysis.

[3] = molecular target: T1, hUT; experiment: Gi activation, BRET biosensor, HEK 293-hUT cells; assay type: cell-based; parameters: expressed in transfected cells; conditions: for EC50: HEK 293-hUT, BRET, mean ± SEM, n = 3–5, read-out: Gi activation pEC50 (converted)
[4] = test system: HEK 293 cells; experiment: Cell proliferation, MTT assay, HEK 293 cells without receptor; assay type: cell-based; conditions: 10^−6 M
Source text: (§1) Each bar corresponds to the mean ± SEM obtained from three independent experiments conducted in triplicate.

[5] = test system: CHO-K1 cells; experiment: ERK1/2 phosphorylation, western blot, CHO-K1 cells not expressing hUT; assay type: cell-based; conditions: CHO-K1, 5 min; hUII 10^−7 M, pepducins 10^−5 M; n = 3
[6] = test system: HEK 293-hUT cells; experiment: Cell proliferation, MTT assay and flow cytometry, HEK 293-hUT cells; assay type: cell-based; conditions: 10^−6 M, three independent experiments in triplicate
Experimental: as §1
HEK 293-hUT cell proliferation was evaluated by flow cytometry using propidium iodide DNA staining. […] Next, cells were detached, fixed with cold 70% ethanol, and then stored at –20 °C for at least 2 h. Cells were centrifuged at 200 rpm for 10 min at 4 °C and washed at least once with cold PBS. Cells were then resuspended in Triton X-100 (0.1%) supplemented with propidium iodide (500 μg mL^−1), and 200 μg mL^−1 of DNAse-free RNAse A in PBS. Data, expressed as the mean ± SEM of at least three independent experiments, were acquired on a FACScan (BD Biosciences), and results were analyzed with the FlowJo v10 software. The proliferation index is defined as the total number of divisions divided by the number of cells that went into division.

[7] = test system: CHO-K1 cells; experiment: IP1 production, IP-One terbium immunoassay, untransfected CHO-K1 cells; assay type: cell-based; conditions: CHO-K1, 40 min incubation
Experimental: This assay, performed with the IP-One terbium immunoassay kits from Cisbio, was used according to the manufacturer recommendation and as previously described ([43]). Briefly, CHO-hUT cells were grown in 10-cm dishes for 24 h. The cells were then starved without serum. The next day, cells were washed once with PBS and collected in PBS containing 20 mM EDTA. For the assay, 80,000 cells per well (96-well plate) were used. […] IP1-d2 and anti-IP1-cryptate were added for an additional 2 h at room temperature. Plates were read on a Flexstation 3 microplate reader.
[Trp1, Leu2]hUT-Pep3. IP1 production was evaluated using the IP-One terbium immunoassay
kitsinCHO-K1 cells.Each histogram represents the mean ± SEM of atleast threeindependent
experiments performed in triplicate.
(also on this page, place not known: (% Maximal Response) FigureS3.IP1productioninCHO-K1cellsfollowingtreatmentbyhUII,hUT-Pep2or [Trp1,Leu2]hUT-Pep3.IP1productionwasevaluatedusingtheIP-Oneterbiumimmunoassay kitsinCHO-K1cells.Eachhistogramrepresentsthemean±SEMofatleastthreeindependent experimentsperformedintriplicate.)

Row | SMILES | EGFR internalization [1] | EGFR transactivation after YM254890 (Gq inhibitor) [1] | effect on cell viability at 10^−4 M [2] | effect on cell viability up to 10^−5 M [2] | Emax [3] [%] | EC50 [3] [nM] | HEK 293 cell proliferation in absence of receptor [4] | ERK1/2 phosphorylation in absence of receptor [5] | HEK 293-hUT cell proliferation [6] | IP1 production in untransfected CHO-K1 cells [7] | Emax at 1 µM [3] [%]
1 | CCCCCCCCCCCCCCCC(=O)N[C@@H](Cc1c[nH]c2ccccc12)C(=O)N[C@@H](CC(C)C)C(=O)N[C@@H](CO)C(=O)N[C@@H](CCC(N)=O)C(=O)N[C@@H](CCCNC(=N)N)C(=O)N[C@@H](C)C(=O)N[C@@H](CO)C(=O)N[C@@H](Cc1ccccc1)C(=O)N[C@@H](CCCCN)C(=O)N[C@@H](CCCNC(=N)N)C(=O)N[C@@H](C)C(=O)N[C@@H](CCCNC(=N)N)C(=O)N[C@@H](CCCNC(=N)N)C(N)=O [[Trp^1, Leu^2]hUT-Pep3] (Palmitoyl-WLSQRASFKRARR-NH2) | significant internalization of EGFR-GFP | almost completely abolished | as cytotoxic as unmodified hUT-Pep3 at 10^−7 M | did not significantly affect HEK 293 cell viability | 97 ± 2 | 0.0407 | completely abrogated | neither hUII nor hUT-derived pepducins were able to induce ERK1/2 phosphorylation | able to induce HEK 293-hUT cell proliferation | not untransfected CHO-K1 cells | 
2 | CC(C)[C@H](NC(=O)[C@@H]1CSSC[C@H](NC(=O)[C@H](CC(=O)O)NC(=O)[C@@H]2CCCN2C(=O)[C@@H](NC(=O)[C@@H](N)CCC(=O)O)[C@@H](C)O)C(=O)N[C@@H](Cc2ccccc2)C(=O)N[C@@H](Cc2c[nH]c3ccccc23)C(=O)N[C@@H](CCCCN)C(=O)N[C@@H](Cc2ccc(O)cc2)C(=O)N1)C(=O)O [hUII, urotensin II, reference compound] | resulted in EGFR internalization |  |  |  |  |  | completely abrogated | neither hUII nor hUT-derived pepducins were able to induce ERK1/2 phosphorylation | able to induce HEK 293-hUT cell proliferation |  | 93 ± 2
3 | CCCCCCCCCCCCCCCC(=O)N[C@@H](CCCNC(=N)N)C(=O)N1CCC[C@H]1C(=O)N[C@@H](CC(C)C)C(=O)N[C@@H](CC(=O)O)C(=O)N[C@H](C(=O)N[C@H](C(=O)N[C@@H](CCC(N)=O)C(=O)N[C@@H](CCCNC(=N)N)C(=O)N1CCC[C@H]1C(=O)N[C@@H](CCCCN)C(=O)NCC(=O)N[C@@H](Cc1ccc(O)cc1)C(N)=O)C(C)C)[C@@H](C)O [hUT-Pep2] (Palmitoyl-RPLDTVQRPKGY-NH2) | significant internalization of EGFR-GFP | almost completely abolished | as cytotoxic as unmodified hUT-Pep3 at 10^−7 M | did not significantly affect HEK 293 cell viability | 96 ± 2 | 0.0813 |  | neither hUII nor hUT-derived pepducins were able to induce ERK1/2 phosphorylation | not hUT-Pep2 were able to induce HEK 293-hUT cell proliferation | not untransfected CHO-K1 cells | 
